Test results from patent US12264185B2, “Stabilized BCL9 peptides for treatment of aberrant Wnt signaling” (WntRx Pharmaceuticals Inc., priority 2015, dated 2025).
Several values for one entry are separate records, joined by “and”; a condition that tells them apart may be missing. Equal values may be shown once. Read-outs that look alike come from different tables or passages of the source. Bridge positions count the residues as written; N and C are the ends. Square brackets hold non-standard residues; d marks the D form. Peptide text beside a SMILES is read from it. 2Nal = N[C@@H](Cc1ccc2ccccc2c1)C(=O)O; R5 = C=CCCC[C@@](C)(N)C(=O)O; S5 = C=CCCC[C@](C)(N)C(=O)O; βAla = NCCC(=O)O

Columns and labels:
FIG. 9B = experiment: FIG. 9B
Text: Table printed on a drawing sheet, FIG. 9B
First reader's note: Plasma PK parameters derived from the concentration-time curves plotted in FIG. 9A on the same sheet.

FIG. 10B = conditions: for MRTINF | hr: in vivo
Experimental: Each data point represents N=2. Mice were administered 5 mg/kg, 10 mg/kg, or 15 mg/kg intravenously, 5 mg/kg intramuscularly, 10 mg/kg intraperitoneally, or 10 mg/kg subcutaneously.

CT26.WT cells = assay type: cell-based
Experimental: One of the stabilized polypeptides generated in Example 10 was tested in a cell viability assay and compared against WX-035. WX-037 was selected for this comparison study. The cell viability assay was performed with CT26.WT cells (ATCC), following the procedures described in Example 2. Briefly, 4000 cells per well of each plate were seeded with 50 μL opti-MEM medium. Each polypeptide, WX-035 or WX-037, was diluted with 2% FBS containing opti-MEM medium using 1 μL of 200× concentrated polypeptide in 99 μL of the medium. Each stock solution was diluted for testing a wide range of concentrations. 50 μL of 2× concentrated polypeptide was added to each well of the plate. Three days after the polypeptide addition, the viability of cells was measured using CellTiterGlo assay, according to the manufacturer's protocol.

Colo320DM cells = experiment: cells
Experimental: Colo320DM cells were selected for this assay as the proliferation of this particular cell line is dependent on BCL9 and β-catenin. ICG001, a known Wnt/β-catenin small molecule inhibitor, was used as a positive control. The cell viability at each treatment condition was analyzed using CellTiterGlo luminescent cell viability assay (Promega) according to the manufacturer's protocols.
Following the procedure described in Example 2, the ability of WX-035 to inhibit cell growth was tested in a cell viability assay using Colo320DM cells.

Wnt/β-catenin signaling = experiment: GeneBLAzer beta-lactamase Wnt transcription reporter assay, LEF/TCF-bla HCT-116 cells; assay type: cell-based; conditions: for IC50: LEF/TCF-bla HCT-116 cells
Text: ICG001 was used as a comparison. The GeneBLAzer uses CellSensor™ LEF/TCF-bla HCT-116 cells that contain a beta-lactamase (BLA) reporter gene under the control of the β-catenin/LEF/TCF response element stably integrated into HCT-116 cells, as shown in FIG. 5A. These cells constitutively express beta-lactamase and can be used to detect agonists and antagonists of the Wnt/β-catenin signaling pathway. The GeneBLAzer assay provides a ratiometric reporter response involving a two-color (blue/green) readout of stimulated and unstimulated cells.
LEF/TCF-bla HCT-116 cells were plated in assay medium (Invitrogen) on clear-bottom plates and incubated overnight at 37° C. […] Cells were next incubated with the Wnt agonist, mWnt3a (provided in the GeneBLAzer kit) for 5 hours at 37° C. Substrate mixture (containing LiveBLAzer™ B/G substrate that employs CCF4-AM, a FRET substrate for beta-lactamase) was added to the wells, and the plate was incubated for 2.5 hours at room temperature in the dark. Black-walled, clear-bottom, 384-well plates (Corning Costar) were used with scanning done with a Spectramax M2. Plates were scanned first (Scan 1 in the blue channel) with excitation filter 409/20 nm and emission filter 460/40 nm. Plates were then scanned (Scan 2 in the green channel) with excitation filer 409/20 nm and emission filter 530/30 nm.

HCT116 cells = assay type: cell-based; conditions: HCT116 cells, CellTiterGlo
Experimental: The additional polypeptides were tested in a CellTiterGlo luminescent cell viability assay (Promega). ICG001 was used as a positive control in this assay.

CT26 cells = experiment: cells; conditions: Mus musculus, CT26, read-out: IC50, CT26 cell growth
Experimental: CT26 cells were grown in F-bottom plates over 5 days. […] CellTiterGlo (Promega) cell viability assay. […] Doxorubicin is a known inhibitor of cell growth and was included as a control.

[1] = read-out: IC50, Wnt transcription

In the case of `CC[C@H](C)[C@@H]1NC(=O)[C@@](C)(NC(=O)[C@H](CCCNC(=N)N)NC(=O)[C@H](CC(C)C)NC(=O)[C@@H](NC(=O)[C@H](CCC(N)=O)NC(=O)[C@H](CC(C)C)NC(C)=O)[C@@H](C)O)CCCC=CCCC[C@@](C)(C(=O)N[C@@H](CC(C)C)C(=O)N[C@@H](Cc2ccc3ccccc3c2)C(N)=O)NC(=O)[C@H](CCCNC(=N)N)NC(=O)[C@H](CCC(N)=O)NC1=O` (single isomer, unassigned) [WX-024, LQTLRXaa1IQRXaa2L], the “T1/2 | hr” value (FIG. 9B) is reported as 2.44 h and 2.59 h and 2.51 h.
For `CC[C@H](C)[C@@H]1NC(=O)[C@@](C)(NC(=O)[C@H](CCCNC(=N)N)NC(=O)[C@H](CC(C)C)NC(=O)[C@@H](NC(=O)[C@H](CCC(N)=O)NC(=O)[C@H](CC(C)C)NC(C)=O)[C@@H](C)O)CCCC=CCCC[C@@](C)(C(=O)N[C@@H](CC(C)C)C(=O)N[C@@H](Cc2ccc3ccccc3c2)C(N)=O)NC(=O)[C@H](CCCNC(=N)N)NC(=O)[C@H](CCC(N)=O)NC1=O` (single isomer, unassigned) [WX-024 10mg/kg, IV], the “AUCINF |” value (FIG. 10B) was 233 µg·h/mL, the “AUClast |” value (FIG. 10B) was 233 µg·h/mL and the “CL | L/hr/kg” value (FIG. 10B) was 0.0428 L/h/kg. The “CL | mL/min/kg” value (FIG. 10B) was 0.713 mL/min/kg, the “VSS |” value (FIG. 10B) was 0.0788 L/kg and the “MRTINF | hr” value (FIG. 10B; mouse, iv) was 1.84 h.
For `CC(=O)N[C@]1(C)CCCC=CCCC[C@@](C)(C(=O)N[C@@H](CC(=O)O)C(=O)N[C@@H](CCCNC(=N)N)C(=O)N[C@@]2(C)CCCC=CCCC[C@@](C)(C(=O)N[C@@H](CC(=O)O)C(=O)N[C@@H](Cc3c[nH]cn3)C(=O)NCCC(=O)NCCC(N)=O)NC(=O)[C@H](CCCNC(=N)N)NC(=O)[C@H](CCC(N)=O)NC(=O)[C@H](CC(=O)O)NC2=O)NC(=O)[C@H](CCC(N)=O)NC(=O)[C@H](CC(=O)O)NC1=O` [WX-037, Xaa1DQXaa2DRXaa3DQRXaa4DH] (Ac-[R5]DQ[S5]DR[S5]DQR[S5]DH[βAla][βAla]-NH2; staple 1-4, 7-11), the IC50 (CT26.WT cells) was greater than 32000 nM.
With `CC[C@H](C)[C@@H]1NC(=O)[C@@](C)(NC(=O)[C@H](CCCNC(=N)N)NC(=O)[C@H](CC(C)C)NC(C)=O)CCCC=CCCC[C@@](C)(C(=O)N[C@@H](CC(C)C)C(N)=O)NC(=O)[C@H](CCCNC(=N)N)NC(=O)[C@H](CCC(N)=O)NC1=O` [WX-020, LRXaa1IQRXaa2L] (Ac-LR[S5]IQR[S5]L-NH2; staple 3-7) the IC50 (Colo320DM cells) was 12400 nM, the “inhibition of Wnt transcription among domain mapping polypeptides” value (Wnt/β-catenin signaling; HCT116 cells) was “most effective polypeptide in inhibiting the Wnt transcription” and the IC50 (Wnt/β-catenin signaling; [1]) was 1580 nM.
Compound `O=c1[nH]cc(F)c(=O)[nH]1` [5-FU, 5-fluorouracil, reference compound] has an IC50 (Colo320DM cells; Homo sapiens, COLO 320DM, read-out: IC50, cell viability) of 12100 nM.
In the case of “stapled, Ac N-terminus, C-terminus 2-Nal-β-Ala-β-Ala-NH2 (Ac-LR[S5]IQR[S5]L[2Nal][βAla][βAla]-NH2; staple 3-7; SMILES CC[C@H](C)[C@@H]1NC(=O)[C@@](C)(NC(=O)[C@H](CCCNC(=N)N)NC(=O)[C@H](CC(C)C)NC(C)=O)CCCC=CCCC[C@@](C)(C(=O)N[C@@H](CC(C)C)C(=O)N[C@@H](Cc2ccc3ccccc3c2)C(=O)NCCC(=O)NCCC(N)=O)NC(=O)[C@H](CCCNC(=N)N)NC(=O)[C@H](CCC(N)=O)NC1=O) [WX-021, LRXaa1IQRXaa2L]”, the IC50 (Wnt/β-catenin signaling; [1]) is reported as 764 nM and the “inhibition of cell growth” value (HCT116 cells) is reported as “particularly effective”.
`Cc1cc(-c2ncc(CC(=O)Nc3ccc(-c4cnccn4)cn3)cc2C)ccn1` [LGK-974, reference compound] showed an IC50 (Wnt/β-catenin signaling; Homo sapiens, read-out: IC50, Wnt/β-catenin transcription) greater than 10000 nM.
For `COc1cccc2c1C(=O)c1c(O)c3c(c(O)c1C2=O)C[C@@](O)(C(=O)CO)C[C@@H]3O[C@H]1C[C@H](N)[C@H](O)[C@H](C)O1` [doxorubicin], the IC50 (CT26 cells) was 7520 nM.
With `C#Cc1cccc(Nc2ncnc3cc(OCCOC)c(OCCOC)cc23)c1` [erlotinib] the IC50 (CT26 cells) was greater than 2000 nM.
With `CC[C@H](C)[C@@H]1NC(=O)[C@@](C)(NC(=O)[C@H](CCCNC(=N)N)NC(=O)[C@H](CC(C)C)NC(=O)[C@@H](NC(=O)[C@H](CCC(N)=O)NC(=O)[C@H](CC(C)C)NC(C)=O)[C@@H](C)O)CCCC=CCCC[C@@](C)(C(=O)N[C@@H](CC(C)C)C(=O)N[C@@H](Cc2ccc3ccccc3c2)C(N)=O)NC(=O)[C@H](CCCNC(=N)N)NC(=O)[C@H](CCC(N)=O)NC1=O` (single isomer, unassigned) [WX-024 15mg/kg, IV] the “AUCINF |” value (FIG. 10B) was 260 µg·h/mL, the “AUClast |” value (FIG. 10B) was 260 µg·h/mL and the “CL | L/hr/kg” value (FIG. 10B) was 0.0576 L/h/kg. For the same compound, the “CL | mL/min/kg” value (FIG. 10B) was 0.96 mL/min/kg, the “VSS |” value (FIG. 10B) was 0.0946 L/kg and the “MRTINF | hr” value (FIG. 10B; mouse, iv) was 1.64 h.
For `O=C1[C@H](Cc2ccc(O)cc2)N2C(=O)CCN(C(=O)NCc3ccccc3)[C@H]2CN1Cc1cccc2ccccc12` [ICG001, reference compound], the “effect on cell viability / cell growth” value (Colo320DM cells; Colo320DM cells) was “capable of inducing cell death in a dose dependent manner”, the IC50 (Wnt/β-catenin signaling; [1]) was 1060 nM and the IC50 (HCT116 cells; read-out: IC50, cell viability) was 2170 nM.
In the case of `CC[C@H](C)[C@@H]1NC(=O)[C@@](C)(NC(=O)[C@H](CCCNC(=N)N)NC(=O)[C@H](CC(C)C)NC(=O)[C@@H](NC(=O)[C@H](CCC(N)=O)NC(=O)[C@H](CC(C)C)NC(C)=O)[C@@H](C)O)CCCC=CCCC[C@@](C)(C(=O)N[C@@H](CC(C)C)C(=O)N[C@@H](Cc2ccc3ccccc3c2)C(N)=O)NC(=O)[C@H](CCCNC(=N)N)NC(=O)[C@H](CCC(N)=O)NC1=O` (single isomer, unassigned) [WX-024 5mg/kg, IV], the “AUCINF |” value (FIG. 10B) is reported as 136 µg·h/mL, the “AUClast |” value (FIG. 10B) is reported as 136 µg·h/mL and the “CL | L/hr/kg” value (FIG. 10B) is reported as 0.0368 L/h/kg. The “CL | mL/min/kg” value (FIG. 10B) was 0.613 mL/min/kg, the “VSS |” value (FIG. 10B) was 0.0693 L/kg and the MRT (FIG. 10B; female, Balb/c, mouse, blood, iv) was 1.88 h. The half-life (FIG. 10B; female, Balb/c, mouse, blood, iv, read-out: TERMINAL t1/2 | hr (converted)) was 1.99 h.
